Data from publication PMC12517324, “Hyperagonism of a Vitamin D Receptor Agonist/Histone Deacetylase Inhibitor Hybrid Molecule” (Journal of Medicinal Chemistry, 2025).

Molecular target: T1, HDAC6 (Homo sapiens, UniProt Q9UBN7)
T1 sequence (Q9UBN7 1-1215): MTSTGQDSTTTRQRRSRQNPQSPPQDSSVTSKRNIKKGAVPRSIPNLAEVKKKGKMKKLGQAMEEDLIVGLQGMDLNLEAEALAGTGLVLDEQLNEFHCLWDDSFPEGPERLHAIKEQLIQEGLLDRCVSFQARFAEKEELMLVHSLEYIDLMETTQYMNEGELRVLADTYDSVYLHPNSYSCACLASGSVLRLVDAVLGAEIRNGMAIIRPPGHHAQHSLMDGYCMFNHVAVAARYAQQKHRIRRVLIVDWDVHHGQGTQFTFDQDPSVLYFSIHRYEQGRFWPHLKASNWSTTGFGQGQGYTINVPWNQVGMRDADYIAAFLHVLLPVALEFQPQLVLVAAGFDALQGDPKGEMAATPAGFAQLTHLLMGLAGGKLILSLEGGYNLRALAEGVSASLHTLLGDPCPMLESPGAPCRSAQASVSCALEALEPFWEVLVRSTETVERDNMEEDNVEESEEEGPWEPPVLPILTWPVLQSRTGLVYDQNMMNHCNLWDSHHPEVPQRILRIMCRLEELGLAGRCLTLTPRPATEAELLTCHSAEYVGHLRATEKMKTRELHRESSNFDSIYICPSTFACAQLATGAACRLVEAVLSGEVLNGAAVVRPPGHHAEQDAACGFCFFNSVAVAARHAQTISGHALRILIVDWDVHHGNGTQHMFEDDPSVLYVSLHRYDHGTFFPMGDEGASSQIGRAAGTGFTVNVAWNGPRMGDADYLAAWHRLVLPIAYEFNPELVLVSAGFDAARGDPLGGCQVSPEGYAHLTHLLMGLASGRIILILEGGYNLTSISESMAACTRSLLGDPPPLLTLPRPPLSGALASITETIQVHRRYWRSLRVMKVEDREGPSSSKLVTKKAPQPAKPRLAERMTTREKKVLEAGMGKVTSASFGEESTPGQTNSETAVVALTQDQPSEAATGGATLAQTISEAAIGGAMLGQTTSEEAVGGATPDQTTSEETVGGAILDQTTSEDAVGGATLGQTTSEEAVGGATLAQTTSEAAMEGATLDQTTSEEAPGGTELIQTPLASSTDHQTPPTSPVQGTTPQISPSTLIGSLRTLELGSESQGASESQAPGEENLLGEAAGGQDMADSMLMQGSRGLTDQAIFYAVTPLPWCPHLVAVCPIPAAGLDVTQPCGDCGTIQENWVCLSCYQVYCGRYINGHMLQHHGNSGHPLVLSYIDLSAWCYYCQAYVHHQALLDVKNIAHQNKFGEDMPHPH
Test: Inhibition of purified HDAC6, Boc-Lys(Ac)-AMC substrate
Format: biochemical
Parameters: purchased Cayman Chemical
Details: 1 h 37 °C

Molecule `CCC(CC)(c1ccc(OCCCCCC(=O)NO)cc1)c1ccc(OCC(O)C(C)(C)C)c(C)n1` (stereo not shown) [AM-193] has an IC50 of 3.09 µM.
